From publication PMC8052950 (Journal of medicinal chemistry, 2021)
Where a name gives a salt, the structure may show the parent alone.

Tests used:
[1] = target: WVpro (West Nile virus protease) (West Nile virus, UniProt Q9Q6P4); experiment: WVpro enzyme inhibition assay; assay type: biochemical
[2] = target: DV2pro (protease of dengue serotype-2) (Dengue virus type 2, UniProt P29990); experiment: DV2pro enzyme inhibition assay; assay type: biochemical, dengue virus serotype-2; conditions: read-out: IC50 against DV2pro; standard errors <30%
ZIKV = conditions: cited from earlier work
ZIKV-FLR = experiment: Cellular anti-ZIKV activity in U87 cells; assay type: cell-based, Zika virus; conditions: for EC68 against ZIKV: in cells, values printed in nM in the text
[3] = tested on: 5 selected human proteases; conditions: at 10 μM; cited from earlier work
[4] = tested on: dengue virus (serotype-2, strain K0049); conditions: comparable activities; cited from earlier work
ZIKV strain HN16 = conditions: comparable activities; cited from earlier work

WVpro (West Nile virus protease), sequence (Q9Q6P4 1424-1470): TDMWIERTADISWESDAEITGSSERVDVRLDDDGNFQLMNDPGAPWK
WVpro (West Nile virus protease), sequence (Q9Q6P4 1506-1675): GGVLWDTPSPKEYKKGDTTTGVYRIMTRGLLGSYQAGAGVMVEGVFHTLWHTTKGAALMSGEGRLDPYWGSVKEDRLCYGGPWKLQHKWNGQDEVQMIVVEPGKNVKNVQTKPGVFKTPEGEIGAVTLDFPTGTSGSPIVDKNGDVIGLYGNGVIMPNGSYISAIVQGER
DV2pro (protease of dengue serotype-2), sequence (P29990 1476-1645): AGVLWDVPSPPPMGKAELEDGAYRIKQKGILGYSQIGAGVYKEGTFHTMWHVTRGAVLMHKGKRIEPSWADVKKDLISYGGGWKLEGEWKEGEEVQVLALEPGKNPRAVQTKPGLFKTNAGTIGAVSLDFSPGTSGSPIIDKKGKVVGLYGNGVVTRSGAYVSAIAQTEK
DV2pro (protease of dengue serotype-2), sequence (P29990 1394-1440): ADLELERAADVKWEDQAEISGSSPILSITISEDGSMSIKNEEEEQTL

SMILES: Brc1ccc(-c2ncc(OCC3CCNCC3)nc2-c2ccc(Br)cc2)cc1 [Compound 1, 2,3-bis(4-Bromophenyl)-5-(piperidin-4-ylmethoxy)pyrazine hydrochloride]
- IC50 [1]: > 50 µM

SMILES: NCc1ccc(-c2cc(CNCC3CCNCC3)sc2-c2ccc(CN)cc2)cc1 [Compound 20, ((5-(((Piperidin-4-ylmethyl)amino)methyl)thiophene-2,3-diyl)bis(4,1-phenylene))dimethanamine Hydrochloride]
- IC50 [2]: > 50 µM
- IC50 [1]: > 50 µM

SMILES: NCc1ccc(-c2ncc(OCC3CCNCC3)nc2-c2ccc(Oc3ccccc3)cc2)cc1 [Compound 44, (4-(3-(4-Phenoxyphenyl)-5-(piperidin-4-ylmethoxy)pyrazin-2-yl)phenyl)methanamine hydrochloride]
- IC50 [1]: > 50 µM

SMILES: NCc1ccc(-c2ncc(OCC3CCNCC3)nc2-c2ccc(-c3ccncc3)cc2)cc1 [Compound 45, (4-(5-(Piperidin-4-ylmethoxy)-3-(4-(pyridin-4-yl)phenyl)pyrazin-2-yl)phenyl)methanamine hydrochloride]
- IC50 [1]: > 50 µM

SMILES: NCc1ccc(-c2ncc(OCC3CCNCC3)nc2-c2ccc(-c3cn[nH]c3)cc2)cc1 [Compound 46]
- IC50 [1]: 0.12 µM

SMILES: NCc1ccc(-c2ncc(OCC3CCNCC3)nc2-c2ccc(-c3ccoc3)cc2)cc1 [Compound 47, (4-(3-(4-(Furan-3-yl)phenyl)-5-(piperidin-4-ylmethoxy)pyrazin-2-yl)phenyl)methanamine hydrochloride]
- In vivo antiviral activity (ZIKV; mouse model of ZIKV infection): strong in vivo antiviral activity
- Survival of the experimental mice (ZIKV; mouse, 30 mg/kg for 3 days): significantly prolonged survivals
- EC68 (ZIKV-FLR; Zika virus, U-87 MG, 48 h, read-out: ZIKV-FLR EC68): 0.3 to 0.6 µM
- EC68 against ZIKV (ZIKV-FLR): 300 to 600 nM
- Inhibition of 5 selected human proteases [3]: did not inhibit
- Inhibition of replication of dengue virus (serotype-2, strain K0049) [4]: potently inhibit replication
- Inhibition of replication of ZIKV strain HN16 (ZIKV strain HN16): potently inhibit replication

SMILES: NCc1ccc(-c2ncc(OCC3CCNCC3)nc2-c2ccc(O)cc2)cc1 [Compound 50, 4-(3-(4-(Aminomethyl)phenyl)-6-(piperidin-4-ylmethoxy)pyrazin-2-yl)phenol hydrochloride]
- Inhibition of ZIKV replication (ZIKV-FLR; at 10 μM): did not inhibit ZIKV replication

SMILES: NCc1ccc(-c2ncc(OCC3CCNCC3)nc2-c2ccc(C3CCOCC3)cc2)cc1 [Compound 103, (4-(5-(Piperidin-4-ylmethoxy)-3-(4-(tetraHydro-2H-pyran-4-yl)phenyl)pyrazin-2-yl)phenyl)methanamine hydrochloride]
- EC68 against ZIKV (ZIKV-FLR): 300 to 600 nM
